Key:
[1] = tested on: freshly resected NSCLC tumors (human lung tumour explants); assay: ex vivo human lung tumour explants: IFNg secretion (IFN-γ ELISA) as measure of T cell (TIL) reactivity; format: cell-based; details: for secretion of IFNg of tumor cells: NSCLC tumors from Hospital Clínico in Barcelona; for interferon gamma secretion from lung tumor cells stimulated with IL-2: FIG. 3
Protocol: (§1) All experiments were carried out in accordance with guidelines set out by the Animal Experimental Ethics Committee. […] Vehicle consisted of 0.1% Tween 80 and 0.5% sodium carboxymethylcellulose (NaCMC) in water. Mice were euthanized at day 15, lungs harvested and tumor nodules counted under dissecting microscope. […] Freshly resected NSCLC tumors were obtained through the Tissue Core at Moffitt Cancer Center. The tumor was disaggregated for 2 hours in a Collagenase/DNase solution in the presence of complete protease inhibitors (Roche). Total cells (Tu) were counted. […] IL-2 has been used in some experiments in order to stimulate the IFN-γ production in these very resistant tumor cells. […] IFNg (IFN-γ ELISA R&D Systems) was determinated as a measure of T cell reactivity to autologous tumor cells. […] The compounds A and B were tested using similar experimental conditions, with the exception that the freshly resected NSCLC tumors were obtained from the Hospital Clínico in Barcelona. […] FIG. 8 a-g show the results obtained in each case. […] This is considered a clear signal of immune stimulation of the infiltrating lymphocytes presents in the tumors. […] 4. […] A compound of Formula I will be administered orally to the patient twice daily, fasting, at a dose of 80 mg, 160 mg, 320 mg or 640 mg throughout a cycle of 28 days. An anti-PD-1 antibody will be administered at a dose of about 300 mg or about 400 mg once every 3 week or once every 4 weeks. The anti-PD-1 antibody will be administered via IV infusion over a period of 30 minutes to 2 h. The compound of Formula I will be administered fasting immediately prior to the infusion with the anti-PD-1 antibody. In order to determine efficacy, baseline evaluations will be performed as closely as possible to the beginning of treatment and never more than 4 weeks before the beginning of the treatment. In addition to a baseline scan, confirmatory scans will be obtained 4-6 weeks following initial documentation of objective response. Response and progression will be evaluated in this study using the new international criteria proposed by the revised Response Evaluation Criteria in Solid Tumors (RECIST) guideline (version 1.1; Eisenhauer E A, Therasse P, Bogaerts J, et al. New response evaluation criteria in solid tumours: revised RECIST guideline (version 1.1). Eur J Cancer 2009; 45:228-47). Changes in the largest diameter (unidimensional measurement) of the tumor lesions and the shortest diameter in the case of malignant lymph nodes are used (Schwartz L H, Bogaerts J, Ford R, et al. Evaluation of lymph nodes with RECIST 1.1. Eur J Cancer 2009; 45:261-7). All The same method of assessment and the same technique will be used to characterize each identified and reported lesion at baseline and during follow-up. Imaging-based evaluation such as Chest x-ray, conventional CT and MRI will be used.

MCA205 tumor cells = assay: anti-tumor activity in syngeneic mice injected intravenously with MCA205 tumor cells (lung nodules); format: in vivo, C57Bl/6 mice; details: for number of lung nodules: oral, 30 mg/Kg/day, similar conditions, University of Barcelona, FIGS. 1b and 1c
Protocol: (§2) (mean lung nodules of 9-10 mice/group±standard errors are shown; *: P<0.05 by Student T test).
(§3) FIGS. 1b and 1c show the anti-tumoral activity of orally administered Compound A and Compound B in two syngeneic mouse models of cancer. (mean lung nodules of 9-10 mice/group±standard errors are shown; *: P<0.05 by Student T test).
(§4) All experiments were carried out in accordance with guidelines set out by the Animal Experimental Ethics Committee. […] Vehicle consisted of 0.1% Tween 80 and 0.5% sodium carboxymethylcellulose (NaCMC) in water. Mice were euthanized at day 15, lungs harvested and tumor nodules counted under dissecting microscope. […] Freshly resected NSCLC tumors were obtained through the Tissue Core at Moffitt Cancer Center. The tumor was disaggregated for 2 hours in a Collagenase/DNase solution in the presence of complete protease inhibitors (Roche). Total cells (Tu) were counted. […] IL-2 has been used in some experiments in order to stimulate the IFN-γ production in these very resistant tumor cells. […] IFNg (IFN-γ ELISA R&D Systems) was determinated as a measure of T cell reactivity to autologous tumor cells. […] The compounds A and B were tested using similar experimental conditions, with the exception that the freshly resected NSCLC tumors were obtained from the Hospital Clínico in Barcelona. […] FIG. 8 a-g show the results obtained in each case. […] This is considered a clear signal of immune stimulation of the infiltrating lymphocytes presents in the tumors. […] 4. […] A compound of Formula I will be administered orally to the patient twice daily, fasting, at a dose of 80 mg, 160 mg, 320 mg or 640 mg throughout a cycle of 28 days. […] Response and progression will be evaluated in this study using the new international criteria proposed by the revised Response Evaluation Criteria in Solid Tumors (RECIST) guideline (version 1.1; Eisenhauer E A, Therasse P, Bogaerts J, et al. New response evaluation criteria in solid tumours: revised RECIST guideline (version 1.1). Eur J Cancer 2009; 45:228-47). […]

B16-CD73+ tumor cells = assay: anti-tumor activity in syngeneic mice injected intravenously with B16-CD73+ tumor cells (lung nodules); format: in vivo, C57Bl/6 mice; details: for number of lung nodules: oral, 30 mg/Kg/day, similar conditions, University of Barcelona, FIGS. 1b and 1c
Protocol: as §2, §3, §4

[2] = toxicity profile in different animal models; format: in vivo; details: in comparison with classical chemotherapy and other adenosine receptor antagonists
[3] = tested on: resistant human lung tumor explants; assay: Bioplex assay of interleukins secretion in supernatants of resistant human lung tumor explants; format: cell-based
Protocol: as §1

[4] = compound alone, 1 μM, FIGS. 4-7 (IL-2 stimulated)
[5] = in combination with an anti-PD-L1 or an anti-PD-1 antibody, FIGS. 4-7
[6] = compound alone, supernatants from ex vivo experiments, FIG. 8

Nc1nc(-n2cccn2)nc(-n2cccn2)c1Cl [Compound A, 5-chloro-2,6-di-(1H-pyrazol-1-yl)pyrimidin-4-amine, reference compound]
secretion of IFNg of tumor cells [1, 4]: not able to increase the secretion of IFNg | secretion of IFNg of tumor cells [1, 5]: not able to increase the secretion of IFNg | number of lung nodules (MCA205 tumor cells): no significant reduction | number of lung nodules (B16-CD73+ tumor cells): no significant reduction

N#Cc1c(N)nc(-n2cccn2)nc1-n1cccn1 [Compound B, 4-amino-2,6-di-(1H-pyrazol-1-yl)pyrimidine-5-carbonitrile, reference compound]
secretion of IFNg of tumor cells [1, 4]: not able to increase the secretion of IFNg | secretion of IFNg of tumor cells [1, 5]: not able to increase the secretion of IFNg | number of lung nodules (MCA205 tumor cells): no significant reduction | number of lung nodules (B16-CD73+ tumor cells): no significant reduction

Nc1nc(-n2cccn2)nc(-n2cccn2)c1Br [Compound of formula (I), 5-bromo-2,6-di-(1H-pyrazol-1-yl)pyrimidin-4-amine]
TIL function (IFNg concentration) ([1]; 1 μM in combination with anti-PD-L1 antibody, other tumors): synergistically capable of restoring TIL function | TIL function (IFNg concentration) ([1]; 1 μM in combination with anti-PD-L1 antibody, some of the samples): improved TIL function (as determined by measuring IFNg concentration) in additive way | interferon gamma secretion from lung tumor cells stimulated with IL-2 ([1]; compound alone): significantly increased | interferon gamma secretion from lung tumor cells stimulated with IL-2 ([1]; in combination with anti-PD-1 antibody, compared with compound alone): more pronounced | interferon gamma secretion of non-stimulated lung tumor cells ([1]; in combination with anti-PD-L1 antibody, FIG. 2): significantly increase | TIL function (IFNg concentration) ([1]; single agent, other tumors, compound 1 μM, antibody 10 mg/ml): had no effect on TIL function | TIL reactivity (IFNg concentration) ([1]; single agent, some of the samples, 200,000 cells/well, 3 days, compound 1 μM, antibody 10 mg/ml): partially restored TIL reactivity | toxicity profile [2]: low toxicity profile | tumor burden (lung nodule and lung metastasis) (MCA205 tumor cells; 2×10^5 MCA205 cells i.v., 30 mg/kg/day oral gavage daily for 7 days vs vehicle, nodules counted day 15, FIG. 1a): significantly reduced tumor burden | tumor burden (lung nodule and lung metastasis) (B16-CD73+ tumor cells; 3×10^5 B16-CD73+ cells i.v., 15 mg/kg/day oral gavage daily for 15 days vs vehicle, nodules counted day 15, FIG. 1a): significantly reduced tumor burden | secretion of IL5 (Interleukin 5) to the medium [3, 6]: significantly increase the secretion | secretion of IL10 (Interleukin 10) to the medium [3, 6]: significantly increase the secretion | secretion of IL13 (Interleukin 13) to the medium [3, 6]: significantly increase the secretion | secretion of IL17 (Interleukin 17) to the medium [3, 6]: significantly increase the secretion | secretion of ILib (Interleukin 1b) to the medium [3, 6]: significantly increase the secretion | secretion of MIP1b to the medium [3, 6]: significantly increase the secretion | secretion of tumor necrosis factor α (TNFα) to the medium [3, 6]: significantly increase the secretion | secretion of different interleukins ([3]; in combination with either an anti PDL-1 or an anti-PD-1 antibody): increased the secretion of different interleukins of these tumors synergistically
